{"source": "patent US20220202739A1", "about": "“ENDOCANNABINOID MIMETIC AND ANTI-INFLAMMATORY COMPOUND CONTAINING COMPOSITIONS, METHODS OF PREPARATION AND USES THEREOF” (priority 2019, published 2022)"}
{"tested_on": "FLG", "test": "Gene expression custom microarray, pooled keratinocyte line (Example 3): FLG", "type": "cell-based, human", "conditions": "pooled keratinocytes, 20 ppm, 24 hr", "description": "Cell cultures: Received and began culture of pooled keratinocyte line from Promocell (C-12006; Lot #448Z026). Cells were seeded into a 75 cm2 flask and 2 6 well dishes for expansion and exposure per manufacturer's protocol using Keratinocyte Growth Medium (C2011B), Keratinocyte Supplement Mix (C39016) and CaCl (C34005). 2 ml of prepared solution were added to each of the 6 wells and 7 ml was added to the 75 cm2 flask.\nExperimental phase: When the appropriate quantity of cells were grown, they were detached as described above, but at the final step were seeded into each well of one or more 6 well dishes. Each well received 2 ml of the cells suspended in suspension so they were seeded equally. The dishes were returned to the incubator until 85-95% confluency is reached.\nIt was at this stage that all wells were rinsed in PBS after aspirating the growth media. The compound(s) to be tested were previously mixed into a suitable solvent (e.g., DMSO or ethanol) that can be diluted to the desired concentration of test compound (10 μl) in the culture wells without exceeding maximum solvent concentrations and adversely effecting cell viability, and mixed with Basal Keratinocyte Media. NOTE: Standard maximum levels of solvent are 0.1% for DMSO and 0.5% for ETOH. The concentration for each tested compound/natural extract is generally listed in the left-hand column of Table 4. For certain compositions (e.g., compositions 15 and 16), other concentrations were used and are noted in the body of Table 4.\nEvery 2 wells on the 6 well plate served as a biological replicate for the purposes of RNA isolation and genetic expression evaluations making each 6 well dish an n=3 for the test compound contained in the media. […]\nAt the end of the 24 hr time period, the plates were removed from the incubator, the test media aspirated, and the cells rinsed with PBS. […] Allow 1 minute for saturation of the membrane and then centrifuge for 2 minutes to complete the RNA elution. • Quantify the quantity of RNA and store at −20 C° until use (no more than 1 month) […]", "units": {"↑FLG gene expression, fold increase or decrease vs untreated cells": "fold"}}
{"smiles": "CC(C)[C@]12O[C@H]1[C@@H]1O[C@]13[C@]1(O[C@H]1C[C@H]1C4=C(CC[C@@]13C)C(=O)OC4)[C@@H]2O", "note": "[Triptolide]", "↑FLG gene expression, fold increase or decrease vs untreated cells": 14.4}
{"smiles": "CCCCCCCCCCCCCCCC(=O)NCCO", "note": "[N-palmitoylethanolamide]", "↑FLG gene expression, fold increase or decrease vs untreated cells": 28.6}
{"smiles": "C=C(C)[C@@H]1CCC(C)=C[C@H]1c1c(O)cc(CCCCC)cc1O", "note": "[CBD, cannabidiol, reference compound]", "↑FLG gene expression, fold increase or decrease vs untreated cells": 1.1}
